These results are taken from patent US20200061062A1, “INHIBITORS OF HUMAN PHOSPHATIDYLINOSITOL 3-KINASE DELTA” (ICOS Corporation, priority 2000, published 2020).

Data set [1] deals with T1, PI3Kβ (Homo sapiens, UniProt P42338).
T1 construct: His tag (pFastbac HTa vector) (N); FLAG (N); made in house; host or cells: Sf21 insect cells (baculovirus)
The data set can be described thus: Biochemical assay of PI3K potency and selectivity using 20 μM ATP, Beta. Conditions: 20 μM ATP; for Beta/Delta Ratio: ratio of IC50 values, > = hypothetical ratio with 100 μM substituted for the missing IC50; for IC50: read-out: Beta IC50; for remaining activity at 100 µM: read-out: Beta: percent activity remaining at 100 μM, 100 μM compound did not inhibit by at least 50%. The procedure:
Recombinant PI3K heterodimeric complexes consisting of a p110 catalytic subunit and a p85 regulatory subunit were overexpressed using the BAC-TO-BAC® HT baculovirus expression system (GIBCO/BRL), and then purified for use in biochemical assays. The four Class I PI 3-kinases were cloned into baculovirus vectors as follows:
The 3× substrate for the HTS contained 0.6 mM Na2ATP, 0.10 mCi/mL γ-[^32P]ATP (NEN, Pittsburgh, Pa.), 6 μM PIP2/PS liposomes (Avanti Polar Lipids, Inc., […].), in 20 mM HEPES, pH 7.4.

For data set [2], the target named is T2, PI3Kδ (Homo sapiens, UniProt O00329, S253N). The data set can be described thus: Biochemical assay of PI3K potency and selectivity using 20 μM ATP, Delta. Also on record: His tag (pFastbac HTb vector) (N); FLAG; made in house; host or cells: Sf21 insect cells (baculovirus). Conditions: 20 μM ATP; read-out: Delta IC50. An excerpt:
(§1) Recombinant PI3K heterodimeric complexes consisting of a p110 catalytic subunit and a p85 regulatory subunit were overexpressed using the BAC-TO-BAC® HT baculovirus expression system (GIBCO/BRL), and then purified for use in biochemical assays. The four Class I PI 3-kinases were cloned into baculovirus vectors as follows: […]

In data set [3] the test system is Murine splenocytes (Balb/c). The data set can be described thus: B cell proliferation in response to cell surface IgM stimulation. Type of data set: cell-based. To be noted: Mus musculus, Splenocyte; stimulated B cell proliferation; read-out: Mouse BCR Stim (EC50). How it is done: In the above experiment, the B cells were stimulated using PANSORBIN®. The effect of D-000 on B cell proliferation response when they were stimulated through their cell surface IgM using anti-IgM antibody also was measured. Murine splenocytes (Balb/c) were plated into 96-well microtiter plates at 2×10^5 cells per well in 10% FBS/RPMI. Appropriate dilutions of test inhibitor in complete medium were added to the cells and the plates were incubated for 30-60 minutes prior to the addition of stimulus. Following the preincubation with test inhibitor an F(ab′)2 preparation of goat antibody specific for the μ-chain of mouse IgM was added to the wells at a final concentration of 25 μg/mL. The plates were incubated at 37° C. for 3 days and 1 μCi of [^3H]-thymidine was added to each well for the final four hours of culture. The plates were harvested onto fiber filters washed and the incorporation of radiolabel was determined using a beta counter (Matrix 96, Packard Instrument Co., Downers Grove, Ill.) and expressed as counts per minute (CPM).
(§2) Using the methods described in Examples 3-5, above, compounds of the invention were tested for inhibitory activity and potency in assays of stimulated B and T cell proliferation, neutrophil (PMN) migration, and neutrophil (PMN) elastase release. In Table 4, the values shown are effective concentrations of the compound (EC50; μM). Where no value is given, no assay was performed.

For data set [4], the target named is T3, PI3Kα (Homo sapiens, UniProt P42336).
T3 construct: His tag (pFastbac HTb vector) (N); FLAG; made in house; host or cells: Sf21 insect cells (baculovirus)
T3 sequence (P42336 whole entry): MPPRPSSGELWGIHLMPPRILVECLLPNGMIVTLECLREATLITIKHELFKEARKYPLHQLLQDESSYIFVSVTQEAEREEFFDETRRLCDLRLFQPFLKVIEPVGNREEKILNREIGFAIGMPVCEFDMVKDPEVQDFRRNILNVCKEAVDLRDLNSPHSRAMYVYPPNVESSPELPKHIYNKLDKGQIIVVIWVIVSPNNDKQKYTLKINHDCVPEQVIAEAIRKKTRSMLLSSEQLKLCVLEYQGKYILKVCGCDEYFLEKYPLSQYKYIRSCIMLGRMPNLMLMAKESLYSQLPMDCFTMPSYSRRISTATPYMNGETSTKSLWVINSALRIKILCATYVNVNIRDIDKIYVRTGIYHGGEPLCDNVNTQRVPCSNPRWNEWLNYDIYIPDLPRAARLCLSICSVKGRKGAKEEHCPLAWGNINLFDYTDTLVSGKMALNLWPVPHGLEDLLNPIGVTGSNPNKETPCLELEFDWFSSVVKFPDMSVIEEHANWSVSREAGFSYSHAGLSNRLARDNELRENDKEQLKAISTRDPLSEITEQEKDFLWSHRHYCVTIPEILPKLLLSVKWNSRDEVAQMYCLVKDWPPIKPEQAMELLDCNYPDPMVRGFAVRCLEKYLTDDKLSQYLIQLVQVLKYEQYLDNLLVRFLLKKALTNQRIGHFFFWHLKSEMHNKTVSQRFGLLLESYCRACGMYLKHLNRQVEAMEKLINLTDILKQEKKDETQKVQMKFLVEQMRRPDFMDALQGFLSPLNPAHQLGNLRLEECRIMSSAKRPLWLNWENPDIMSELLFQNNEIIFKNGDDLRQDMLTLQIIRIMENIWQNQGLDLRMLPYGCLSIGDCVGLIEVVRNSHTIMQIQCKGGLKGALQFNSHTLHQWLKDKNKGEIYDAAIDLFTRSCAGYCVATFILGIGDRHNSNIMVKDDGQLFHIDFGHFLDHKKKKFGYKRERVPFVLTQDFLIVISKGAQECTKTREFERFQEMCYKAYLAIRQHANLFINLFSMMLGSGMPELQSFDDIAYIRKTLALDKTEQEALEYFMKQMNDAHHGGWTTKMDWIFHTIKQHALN
T3 sequence (P27986 whole entry partner): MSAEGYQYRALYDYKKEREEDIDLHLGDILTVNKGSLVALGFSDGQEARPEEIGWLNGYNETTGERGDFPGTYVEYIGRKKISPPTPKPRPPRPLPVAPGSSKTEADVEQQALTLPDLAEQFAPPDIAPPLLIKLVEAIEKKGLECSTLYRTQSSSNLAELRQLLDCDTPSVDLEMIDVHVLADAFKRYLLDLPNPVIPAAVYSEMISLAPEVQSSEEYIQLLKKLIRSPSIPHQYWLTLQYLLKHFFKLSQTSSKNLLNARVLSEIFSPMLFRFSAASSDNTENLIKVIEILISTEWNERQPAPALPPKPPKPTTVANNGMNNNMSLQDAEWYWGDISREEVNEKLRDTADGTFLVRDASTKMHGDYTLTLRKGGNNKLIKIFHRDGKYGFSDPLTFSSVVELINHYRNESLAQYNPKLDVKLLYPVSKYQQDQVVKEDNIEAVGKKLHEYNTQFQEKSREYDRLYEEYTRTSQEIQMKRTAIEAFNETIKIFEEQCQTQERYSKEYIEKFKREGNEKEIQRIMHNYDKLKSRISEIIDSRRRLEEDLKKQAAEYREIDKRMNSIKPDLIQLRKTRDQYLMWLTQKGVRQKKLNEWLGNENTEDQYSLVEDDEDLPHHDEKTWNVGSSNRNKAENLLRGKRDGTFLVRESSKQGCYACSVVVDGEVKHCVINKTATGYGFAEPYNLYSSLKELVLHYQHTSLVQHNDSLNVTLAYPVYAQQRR
The data set can be described thus: Biochemical assay of PI3K potency and selectivity using 20 μM ATP, Alpha. To be noted: for Alpha/Delta Ratio / IC50: 20 μM ATP; for Alpha/Delta Ratio: ratio of IC50 values, > = hypothetical ratio with 100 μM substituted for the missing IC50; for remaining activity at 100 µM: read-out: percent activity remaining at 100 μM, 20 μM ATP, 100 μM compound did not inhibit by at least 50%; for IC50: read-out: Alpha IC50.
From the text: as §1

The subject of a further data set is human neutrophils. The data set is described as follows: Elastase exocytosis from neutrophils (fMLP-induced). Type of data set: cell-based. Conditions: neutrophil (PMN) elastase release. How it is done:
Aliquots (8 mL) of heparinized blood from healthy volunteers were layered on 3 mL cushions of 7.3% FICOLL® (Sigma, St. Louis, Mo.) and 15.4% HYPAQUE® (Sigma) and centrifuged at 900 rpm for 30 min at room temperature in a table top centrifuge (Beckman). The neutrophil-rich band just above the FICOLL®-HYPAQUE® cushion was collected and washed with Hanks' balanced salt solution (HBSS) containing 0.1% gelatin. Residual erythrocytes were removed by hypotonic lysis with 0.2% NaCl. The neutrophil preparation was washed twice with HBSS containing 0.1% gelatin and used immediately.
In addition to superoxide generation, activated neutrophils also respond by releasing several proteases that are responsible for the destruction of tissues and cartilage during inflammation. As an indication of protease release, the effect of D-000 on elastase exocytosis was measured. Elastase exocytosis was quantitated by modification of the procedure described by Ossanna et al. (J Clin Invest, 77:1939-1951 (1986)), as follows. Purified human neutrophils (0.2×10^6) (treated with either DMSO or a serial dilution of D-000 in DMSO) were stimulated with fMLP in PBS containing 0.01 mg/mL cytochalasin B, 1.0 μM sodium azide (NaN3), 5 μg/mL L-methionine and 1 μM fMLP for 90 min at 37° C. in a 96-well plate. At the end of the incubation period, the plate was centrifuged for 5 min at 1000 rpm, and 90 μL of the supernatant was transferred to 10 μL of 10 mM solution of an elastase substrate peptide, MeO-suc-Ala-Ala-Pro-Val-pNA, wherein MeO-suc=methoxy-succinyl; pNA=p-nitroanilide (Calbiochem, San Diego, Calif.). Absorbance at 410 nm was monitored for 2 hr in a 96-well plate reader. To measure the relative amounts of elastase excytosed, all absorbance values were normalized to the values without any inhibitor. […] Inhibition was half-maximal at a concentration of about 2-3 μM D-000.
as §2

Data set [5] addresses T2, PI3Kδ. The data set can be described thus: Biochemical assay using 200 μM ATP, Delta.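 Note: radiometric filter-binding assay: PI3Kδ transfers ³²P from γ-[³²P]ATP onto PIP2/PS liposomes, counted by scintillation, enzyme-only wells as positive control, no-enzyme wells as background.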
Data set [6] deals with T1, PI3Kβ. The data set is described as follows: Biochemical assay using 200 μM ATP, Beta.
The target in data set [7] is T3, PI3Kα. The data set is described as follows: Biochemical assay using 200 μM ATP, Alpha.
In the next data set the target is T4, PI3Kγ (Homo sapiens, UniProt P48736).
T4 construct: His tag (pFastbac HTb vector) (N); FLAG (N); made in house; host or cells: Sf21 insect cells (baculovirus)
T4 sequence (P48736 whole entry): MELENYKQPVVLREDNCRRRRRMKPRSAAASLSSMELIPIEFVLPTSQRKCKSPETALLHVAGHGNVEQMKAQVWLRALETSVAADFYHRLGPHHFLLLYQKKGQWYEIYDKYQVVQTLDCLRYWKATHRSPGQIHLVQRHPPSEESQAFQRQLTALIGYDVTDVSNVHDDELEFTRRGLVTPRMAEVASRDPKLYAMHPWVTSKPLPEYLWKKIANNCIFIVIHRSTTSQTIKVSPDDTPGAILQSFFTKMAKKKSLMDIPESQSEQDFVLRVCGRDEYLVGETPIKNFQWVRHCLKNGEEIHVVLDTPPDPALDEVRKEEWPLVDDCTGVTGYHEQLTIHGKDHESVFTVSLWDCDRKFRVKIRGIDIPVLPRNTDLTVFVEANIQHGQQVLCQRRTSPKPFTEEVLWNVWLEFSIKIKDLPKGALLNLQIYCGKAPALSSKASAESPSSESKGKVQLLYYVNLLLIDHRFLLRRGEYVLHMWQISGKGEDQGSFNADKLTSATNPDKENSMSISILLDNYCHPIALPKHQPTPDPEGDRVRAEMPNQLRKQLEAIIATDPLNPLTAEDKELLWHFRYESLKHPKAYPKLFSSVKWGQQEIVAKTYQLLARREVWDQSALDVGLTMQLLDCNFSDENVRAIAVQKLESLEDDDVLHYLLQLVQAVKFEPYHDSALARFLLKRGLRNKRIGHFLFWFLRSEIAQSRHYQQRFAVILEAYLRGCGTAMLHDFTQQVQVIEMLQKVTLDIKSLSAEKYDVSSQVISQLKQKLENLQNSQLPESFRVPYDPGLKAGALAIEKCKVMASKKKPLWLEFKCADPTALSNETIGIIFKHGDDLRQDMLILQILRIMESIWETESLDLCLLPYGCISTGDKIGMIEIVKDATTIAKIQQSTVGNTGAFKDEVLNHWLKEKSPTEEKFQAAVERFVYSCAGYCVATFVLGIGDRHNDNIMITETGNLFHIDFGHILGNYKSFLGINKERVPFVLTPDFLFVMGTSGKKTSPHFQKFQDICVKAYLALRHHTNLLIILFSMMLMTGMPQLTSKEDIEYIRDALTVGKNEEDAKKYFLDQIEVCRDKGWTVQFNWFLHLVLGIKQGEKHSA
The data set is described as follows: Biochemical assay using 200 μM ATP, Gamma.

T1 sequence (P42338 whole entry): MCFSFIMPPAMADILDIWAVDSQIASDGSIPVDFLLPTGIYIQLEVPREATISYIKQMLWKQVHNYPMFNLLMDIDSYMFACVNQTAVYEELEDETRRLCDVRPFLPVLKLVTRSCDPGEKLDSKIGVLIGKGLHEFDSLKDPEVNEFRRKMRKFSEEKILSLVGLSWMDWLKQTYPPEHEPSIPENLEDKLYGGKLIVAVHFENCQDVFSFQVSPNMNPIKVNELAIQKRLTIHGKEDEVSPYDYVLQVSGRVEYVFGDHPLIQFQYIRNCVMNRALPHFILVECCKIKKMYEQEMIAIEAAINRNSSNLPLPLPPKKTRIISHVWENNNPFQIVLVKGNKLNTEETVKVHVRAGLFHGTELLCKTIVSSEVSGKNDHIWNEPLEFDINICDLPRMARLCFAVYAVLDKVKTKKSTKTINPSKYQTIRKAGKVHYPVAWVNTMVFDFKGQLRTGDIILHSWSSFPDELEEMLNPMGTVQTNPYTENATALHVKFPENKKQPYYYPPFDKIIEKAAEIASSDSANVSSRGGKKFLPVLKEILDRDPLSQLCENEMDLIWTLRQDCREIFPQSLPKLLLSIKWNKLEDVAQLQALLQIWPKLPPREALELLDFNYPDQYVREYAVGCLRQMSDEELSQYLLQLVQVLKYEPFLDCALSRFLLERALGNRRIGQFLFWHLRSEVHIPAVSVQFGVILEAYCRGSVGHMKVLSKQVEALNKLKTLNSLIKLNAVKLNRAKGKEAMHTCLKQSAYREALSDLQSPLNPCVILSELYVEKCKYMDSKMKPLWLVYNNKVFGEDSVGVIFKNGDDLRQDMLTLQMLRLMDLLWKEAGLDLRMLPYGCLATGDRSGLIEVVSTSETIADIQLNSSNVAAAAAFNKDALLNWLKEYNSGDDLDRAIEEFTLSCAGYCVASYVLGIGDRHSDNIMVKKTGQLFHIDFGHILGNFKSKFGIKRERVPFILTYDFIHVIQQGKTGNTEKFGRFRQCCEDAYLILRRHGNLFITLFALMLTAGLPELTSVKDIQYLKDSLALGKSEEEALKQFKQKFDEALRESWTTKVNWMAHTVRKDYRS
T1 sequence (P27986 whole entry partner): as the sequence (P27986 whole entry partner) above
T2 sequence (O00329 whole entry S253N): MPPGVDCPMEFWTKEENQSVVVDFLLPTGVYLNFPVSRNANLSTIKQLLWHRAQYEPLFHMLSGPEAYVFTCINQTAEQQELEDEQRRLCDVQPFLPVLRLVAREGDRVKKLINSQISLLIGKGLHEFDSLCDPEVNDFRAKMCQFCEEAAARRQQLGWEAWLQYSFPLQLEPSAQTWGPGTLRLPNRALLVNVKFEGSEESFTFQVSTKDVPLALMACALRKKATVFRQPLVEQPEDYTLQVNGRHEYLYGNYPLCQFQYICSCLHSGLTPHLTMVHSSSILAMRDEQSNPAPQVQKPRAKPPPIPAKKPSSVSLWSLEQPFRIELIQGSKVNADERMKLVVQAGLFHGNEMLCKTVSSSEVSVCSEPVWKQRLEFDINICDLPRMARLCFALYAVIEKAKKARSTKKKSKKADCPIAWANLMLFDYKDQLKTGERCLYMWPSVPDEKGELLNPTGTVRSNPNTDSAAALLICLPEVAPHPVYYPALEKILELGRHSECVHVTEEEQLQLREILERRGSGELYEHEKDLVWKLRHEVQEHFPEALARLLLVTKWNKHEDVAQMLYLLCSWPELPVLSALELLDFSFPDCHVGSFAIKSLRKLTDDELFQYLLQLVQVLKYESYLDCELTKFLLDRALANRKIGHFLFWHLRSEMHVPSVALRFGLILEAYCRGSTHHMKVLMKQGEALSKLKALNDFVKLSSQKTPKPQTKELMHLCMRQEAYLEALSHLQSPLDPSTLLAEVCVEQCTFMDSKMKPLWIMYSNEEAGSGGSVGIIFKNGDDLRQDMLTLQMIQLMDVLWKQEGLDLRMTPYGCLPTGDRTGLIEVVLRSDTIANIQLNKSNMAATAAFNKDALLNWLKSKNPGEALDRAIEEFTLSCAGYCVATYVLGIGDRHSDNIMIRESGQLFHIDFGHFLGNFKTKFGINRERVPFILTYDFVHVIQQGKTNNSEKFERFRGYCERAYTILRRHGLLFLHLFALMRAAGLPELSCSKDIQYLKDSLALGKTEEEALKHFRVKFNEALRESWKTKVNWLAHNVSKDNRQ
T2 sequence (P27986 whole entry partner): as the sequence (P27986 whole entry partner) above

As a reminder, the EC50 is the concentration that produces a half-maximal response. A word on the remaining activity: it is the signal under treatment as a percentage of the control signal. Usually melting point stands for the temperature, or range, at which the solid turns liquid. As to `Nc1ncnc2c1ncn2Cc1nc2c(Cl)cccc2c(=O)n1-c1ccccc1Cl` [Compound D-008, 2-(6-Aminopurin-9-ylmethyl)-8-chloro-3-(2-chlorophenyl)-3H-quinazolin-4-one], the melting point was 273.3 to 273.5 °C. Also, at PI3Kβ [1], the “Beta/Delta Ratio” value is on record as 57 and the IC50 came out at 68 µM. The IC50 on PI3Kδ [2] is 1.2 µM. Moreover, in [3], the EC50 was found to be 1 µM. In addition, on PI3Kα [4], the “Alpha/Delta Ratio” value is given as over 85 and the remaining activity at 100 µM worked out at 82%.
Turning to `Nc1ncnc2c1ncn2Cc1nc2cccc(Cl)c2c(=O)n1-c1ccccc1F` [Compound D-012, 2-(6-Aminopurin-9-ylmethyl)-5-chloro-3-(2-fluorophenyl)-3H-quinazolin-4-one], the melting point was 295.6 to 295.8 °C (dec.). For the same compound, at PI3Kβ [1], the “Beta/Delta Ratio” value is 65 and the IC50 stood at 11 µM. The IC50 at PI3Kδ [2] was determined as 0.17 µM. Further, in the data set with human neutrophils, a half-maximal response (EC50) required 0.3 µM. In addition, the IC50 at PI3Kδ [5] amounted to 1.3 ± 0.4 µM. In addition, at PI3Kβ [6], the “Beta/Delta Ratio” value worked out at 83 and the IC50 came out at 108 ± 4 µM. In data set [3], the EC50 was 0.3 ± 0.2 µM. Further, at PI3Kα [4], the “Alpha/Delta Ratio” value is given as over 588 and the remaining activity at 100 µM was 69%. Also, the “Alpha/Delta Ratio” value on PI3Kα [7] is 107. Moreover, the “Gamma/Delta Ratio” value on PI3Kγ worked out at 38.
Turning to `Cc1cccc2nc(CSc3ncnc4[nH]cnc34)n(-c3c(Cl)cccc3Cl)c(=O)c12` [Compound D-034, 3-(2,6-dichlorophenyl)-5-methyl-2-(9H-purin-6-ylsulfanylmethyl)-3H-quinazolin-4-one], the figures for the “Beta/Delta Ratio” value on PI3Kβ [1] and at PI3Kβ [6] were 74 and 85, respectively. Also, the IC50 at PI3Kβ [1] turned out to be 11 µM; on PI3Kδ [2], 0.15 µM; on PI3Kδ [5], 1.2 ± 0.3 µM; against PI3Kβ [6], 103 ± 4 µM; on PI3Kα [4] it was 19 µM; against PI3Kγ, 34 ± 1 µM. Also, the concentration giving a half-maximal response (EC50) in [3] came out at 0.6 ± 0.4 µM. Moreover, the “Alpha/Delta Ratio” value is 131 on PI3Kα [4] and 153 at PI3Kα [7]. Besides, at PI3Kγ, the “Gamma/Delta Ratio” value stood at 28.
Compound `Nc1ncnc2c1ncn2Cc1nc2cccc(Cl)c2c(=O)n1-c1ccccc1-c1ccccc1` [Compound D-009, 2-(6-Aminopurin-9-ylmethyl)-3-biphenyl-2-yl-5-chloro-3H-quinazolin-4-one] came in with a melting point of 299.9 to 300.1 °C. In addition, at PI3Kβ [1], the “Beta/Delta Ratio” value came out at 50 and the IC50 is 5 µM. Also, the IC50 on PI3Kδ [2] came to 0.12 µM. The compound further had an EC50 in the data set with human neutrophils of 10.5 µM. In addition, at PI3Kδ [5], the IC50 came out at 0.7 µM. Further, at PI3Kβ [6], the “Beta/Delta Ratio” value is 26 and the IC50 was 18 µM. The EC50 in data set [3] was determined as 0.3 ± 0.2 µM. For the same compound, at PI3Kα [4], the “Alpha/Delta Ratio” value was found to be 683 and the IC50 amounted to 82 µM. Further, the “Alpha/Delta Ratio” value on PI3Kα [7] was 200. At PI3Kγ, the “Gamma/Delta Ratio” value is reported as 76 and the IC50 turned out to be 53 µM.
With `O=c1c2ccccc2nc(CSc2ncnc3[nH]cnc23)n1-c1ccccc1` [Compound D-121, 3-phenyl-2-(9H-purin-6-ylsulfanylmethyl)-3H-quinazolin-4-one], the “Beta/Delta Ratio” value on PI3Kβ [1] is on record as over 211; at PI3Kβ [6], 138. Further, the remaining activity at 100 µM came to 70% at PI3Kβ [1] and 69% at PI3Kα [4]. The IC50 on PI3Kδ [2] came to 0.48 µM; against PI3Kδ [5], 0.9 µM. In addition, the EC50 in data set [3] is 1.4 µM. Also, the “Alpha/Delta Ratio” value on PI3Kα [4] is recorded as over 211; on PI3Kα [7] it was 158. Besides, the “Gamma/Delta Ratio” value on PI3Kγ amounted to 136.
As for `O=c1c2cc(O)ccc2nc(CSc2ncnc3[nH]cnc23)n1-c1ccccc1Cl` [Compound D-024, 3-(2-Chlorophenyl)-6-hydroxy-2-(9H-purin-6-ylsulfanylmethyl)-3H-quinazolin-4-one], the melting point was 186 to 214 °C (dec.). For the same compound, at PI3Kβ [1], the “Beta/Delta Ratio” value was over 38 and the remaining activity at 100 µM was 76%. Moreover, the IC50 at PI3Kδ [2] came to 2.6 µM. For the same compound, the concentration giving a half-maximal response (EC50) in the data set on human neutrophils was determined as 2.9 µM. On PI3Kα [4], the “Alpha/Delta Ratio” value was found to be 38 and the IC50 was found to be 100 µM.
In turn, `Cc1cccc2nc(CSc3ncnc4[nH]cnc34)n(-c3ccccc3F)c(=O)c12` [Compound D-031, 3-(2-Fluorophenyl)-5-methyl-2-(9H-purin-6-ylsulfanylmethyl)-3H-quinazolin-4-one] showed a melting point of 151.9 to 152.2 °C. Moreover, at PI3Kβ [1], the “Beta/Delta Ratio” value came out at 83 and the IC50 was determined as 10 µM. Further, the IC50 on PI3Kδ [2] was 0.12 µM. In the data set with human neutrophils, this compound yielded an EC50 of 0.7 ± 0.1 µM. The compound further had an IC50 against PI3Kδ [5] of 0.2 ± 0.01 µM. Also, on PI3Kβ [6], the “Beta/Delta Ratio” value is recorded as 707 and the IC50 amounted to 137 ± 23 µM. For the same compound, the EC50 in data set [3] came to 0.2 ± 0.1 µM. Also, on PI3Kα [4], the “Alpha/Delta Ratio” value was over 833 and the IC50 came to 74 µM. The “Alpha/Delta Ratio” value on PI3Kα [7] is 903. Further, on PI3Kγ, the “Gamma/Delta Ratio” value is given as 802 and the IC50 is 155 ± 60 µM.
For `CCOC(=O)Cn1c(CSc2ncnc3[nH]cnc23)nc2cccc(F)c2c1=O` [Compound D-045, [5-fluoro-4-oxo-2-(9H-purin-6-ylsulfanylmethyl)-4H-quinazolin-3-yl]acetic acid ethyl ester], at PI3Kβ [1], the “Beta/Delta Ratio” value is recorded as over 13 and the remaining activity at 100 µM turned out to be 74%. For the same compound, the IC50 at PI3Kδ [2] stood at 7.6 µM. In the data set on human neutrophils, the EC50 stood at 9 µM. For the same compound, on PI3Kα [4], the “Alpha/Delta Ratio” value was over 13 and the remaining activity at 100 µM came out at 98%.
